Results from patent US11072634B2, “Inhibitors of transglutaminases” (Zedira GmbH, priority 2016, dated 2021).

Columns and labels:
CaCo2 and Huh7 cells = assay: Cytotoxicity of transglutaminase inhibitors (BrdU and EZ4U); type: cell-based, human; details: highest concentration measured 1 mM
Description: The following cell lines are used for determination of cytotoxicity: • CaCo2 (human colon carcinoma cell line) • Huh7 (human liver carcinoma cell line).
Cells are cultivated in DMEM/10% FCS at 37° C. and 5% CO2 in a 96 well plate with an initial seeding density of 2×10^4 cells/well.
Transglutaminase inhibitors are added to the cells with final concentrations from 0.1 μM to 1 mM one hour after seeding. The different inhibitor dilutions are prepared in DMSO, resulting in a final concentration of 1% (v/v) DMSO in every well (2 μl inhibitor in 200 μl cell culture medium). Cycloheximide (2.5 μg/ml) and Camptothecin (0.2 μg/ml) are used as control compounds. All measurements are performed in triplicates.
Cytotoxicity of transglutaminase inhibitors is evaluated with two different assays:
Determination of proliferation using Cell Proliferation ELISA, BrdU (Roche, Cat. No. 11647229001).
After 24 h of incubation with inhibitors or controls, BrdU is added to the cells. After further incubation for 18 h, the cells are fixed and cellular DNA becomes denatured. […] Substrate solution is added and absorbance at 450 nm is recorded. […]
After 48 h of incubation with inhibitors or controls, the tetrazolium substrate is added to the cells. Substrate turnover by the cells is measured over two hours at 450 nm (using 630 nm was reference wavelength).

TG2 = biological target: T1, TG2 (Homo sapiens, UniProt P21980); assay: Transglutaminase activity of homogenates of LPS-stimulated BEAS-2B cells; type: cell-based; details: 0-200 μM
T1 sequence (P21980 1-687): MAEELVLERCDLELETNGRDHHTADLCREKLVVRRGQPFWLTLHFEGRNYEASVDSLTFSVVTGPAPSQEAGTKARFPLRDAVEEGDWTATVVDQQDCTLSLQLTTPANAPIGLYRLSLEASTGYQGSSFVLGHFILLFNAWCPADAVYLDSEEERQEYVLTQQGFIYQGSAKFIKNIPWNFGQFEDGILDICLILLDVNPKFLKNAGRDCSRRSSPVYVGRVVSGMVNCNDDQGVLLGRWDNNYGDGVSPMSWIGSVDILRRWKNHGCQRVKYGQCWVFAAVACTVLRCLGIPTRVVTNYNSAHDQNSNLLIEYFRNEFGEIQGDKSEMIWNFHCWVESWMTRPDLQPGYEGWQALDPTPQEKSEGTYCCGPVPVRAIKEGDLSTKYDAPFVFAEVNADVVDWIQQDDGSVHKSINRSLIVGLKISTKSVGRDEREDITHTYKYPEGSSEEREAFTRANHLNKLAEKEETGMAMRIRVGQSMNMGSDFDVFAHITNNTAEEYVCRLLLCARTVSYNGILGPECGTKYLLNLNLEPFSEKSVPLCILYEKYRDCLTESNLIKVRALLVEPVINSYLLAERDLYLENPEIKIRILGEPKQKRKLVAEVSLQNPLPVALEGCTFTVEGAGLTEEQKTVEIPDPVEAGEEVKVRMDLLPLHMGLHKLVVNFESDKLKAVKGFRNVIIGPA
Description: A) Transglutaminase activity of homogenates from BEAS-2B-cell grown in the presence of 0-200 μM E22 and stimulated with LPS determined by TG2-selective Tissue Transglutaminase Pico-Assay Kit (#M003, Zedira, Darmstadt, Germany) according to the manufacturer's instructions.
Extracellular matrix deposition is a hallmark in pulmonary fibrosis. The BEAS-2B cell line is derived from normal human bronchial epithelium.
BEAS-2B cells were grown at 37° C. and 5% CO2 in 25 mM HEPES-buffered M199-medium (Merck, Darmstadt) containing 10% FBS, […], 2 mM glutamine, 100 U/ml penicillin (supplemented with […] apotransferrin, 20 ng/ml human epidermal growth factor (EGF), […] insulin, and 0.361 mg/ml hydrocortisone). For the induction of airway fibrosis by epithelial-to-mesenchymal transition (EMT), cells were seeded at 80% confluence on six-well plates. After one day cultivation 4 μg/mL LPS as well as 0 μM, 100 μM or 200 μM E22 were added and then incubated for further 72 h.

Row | Transglutaminase activity (TG2) | Structure (SMILES) | no influence on cell proliferation or metabolic activity up to (CaCo2 and Huh7 cells) [mM]
1 | – | COC(=O)[C@H](CC(C)C)NC(=O)[C@@H]1CCCN1C(=O)[C@@H](NC(=O)[C@H](CCC(=O)C(N)=O)NC(=O)OCc1ccccc1)C(C)C [Compound E02, (S)-methyl 2-((S)-1-((S)-2-((S)-6-amino-2-(benzyloxycarbonylamino)-5,6-dioxo-hexanamido)-3-methylbutanoyl)pyrrolidine-2-carboxamido)-4-methylpentanoate] | > 1
2 | dose dependent reduction | CCCCCNC(=O)C(=O)CC[C@H](NC(=O)[C@@H]1CCCN1C(C)=O)C(=O)Nc1cccn(CC(=O)NCC(CC)CC)c1=O [Compound E22, (S)-2-((S)-1-acetylpyrrolidine-2-carboxamido)-N1-(1-(2-(2-ethylbutylamino)-2-oxoethyl)-2-oxo-1,2-dihydropyridin-3-yl)-5-oxo-N6-pentylhexanediamide] | –
